Bridge positions count the residues as written; N and C are the ends. Peptide text beside a SMILES is read from it.
How the values were obtained:
SREBP1 = test: Immunofluorescence assay for SREBP1 translocation in primary hepatocytes; type: cell-based, mouse; conditions: 100 nM for 30 min
Method: Primary hepatocytes were as described in the primary hepatocyte isolation section. […] Cells were fixed with 4% paraformaldehyde for 10 min. The fixed cells were incubated with PBS for 30 min and 3% BSA in PBS with 0.1% Triton X-100 (0.1% PBST) for 1 hr., and then treated with anti-SREBP1 antibodies (20B12, Millipore, Cat. #MABS1987, 1:200) in 3% BSA in 0.1% PBST at 4° C. overnight. After being washed, cells were incubated with secondary antibodies (Alexa Fluor 488 goat anti-rabbit, Invitrogen, Cat. #A11008, 1:200) for 1 hr. Cells were washed and mounted on microscope slides in ProLong Gold Antifade reagent with DAPI (Invitrogen). Images were acquired as a series of 0.2 μm stacks with a Leica Thunder Imager (Leica Microsystems Inc.). Raw images were deconvolved using LAS X Software (Leica Microsystems Inc.). The nuclear edges and the nuclear SREBP1 signal were defined with Image J. Identical exposure times and magnifications were used for all comparative analyses.

CAL33 = test: IR signaling in cancer cells, CAL33; type: cell-based; conditions: 10, 100 or 300 nM for 10 minutes
IR R345A = target: T1, IR R345A (Homo sapiens, UniProt P06213, R372A); test: IR activation assay in 293 FT cells, IR R345A mutant; type: cell-based; conditions: 10 nM for 10 min
T1 construct: expressed in transfected cells; host or cells: 293 FT cells
T1 sequence (P06213 28-1370 isoform P06213-2 R372A limits assumed): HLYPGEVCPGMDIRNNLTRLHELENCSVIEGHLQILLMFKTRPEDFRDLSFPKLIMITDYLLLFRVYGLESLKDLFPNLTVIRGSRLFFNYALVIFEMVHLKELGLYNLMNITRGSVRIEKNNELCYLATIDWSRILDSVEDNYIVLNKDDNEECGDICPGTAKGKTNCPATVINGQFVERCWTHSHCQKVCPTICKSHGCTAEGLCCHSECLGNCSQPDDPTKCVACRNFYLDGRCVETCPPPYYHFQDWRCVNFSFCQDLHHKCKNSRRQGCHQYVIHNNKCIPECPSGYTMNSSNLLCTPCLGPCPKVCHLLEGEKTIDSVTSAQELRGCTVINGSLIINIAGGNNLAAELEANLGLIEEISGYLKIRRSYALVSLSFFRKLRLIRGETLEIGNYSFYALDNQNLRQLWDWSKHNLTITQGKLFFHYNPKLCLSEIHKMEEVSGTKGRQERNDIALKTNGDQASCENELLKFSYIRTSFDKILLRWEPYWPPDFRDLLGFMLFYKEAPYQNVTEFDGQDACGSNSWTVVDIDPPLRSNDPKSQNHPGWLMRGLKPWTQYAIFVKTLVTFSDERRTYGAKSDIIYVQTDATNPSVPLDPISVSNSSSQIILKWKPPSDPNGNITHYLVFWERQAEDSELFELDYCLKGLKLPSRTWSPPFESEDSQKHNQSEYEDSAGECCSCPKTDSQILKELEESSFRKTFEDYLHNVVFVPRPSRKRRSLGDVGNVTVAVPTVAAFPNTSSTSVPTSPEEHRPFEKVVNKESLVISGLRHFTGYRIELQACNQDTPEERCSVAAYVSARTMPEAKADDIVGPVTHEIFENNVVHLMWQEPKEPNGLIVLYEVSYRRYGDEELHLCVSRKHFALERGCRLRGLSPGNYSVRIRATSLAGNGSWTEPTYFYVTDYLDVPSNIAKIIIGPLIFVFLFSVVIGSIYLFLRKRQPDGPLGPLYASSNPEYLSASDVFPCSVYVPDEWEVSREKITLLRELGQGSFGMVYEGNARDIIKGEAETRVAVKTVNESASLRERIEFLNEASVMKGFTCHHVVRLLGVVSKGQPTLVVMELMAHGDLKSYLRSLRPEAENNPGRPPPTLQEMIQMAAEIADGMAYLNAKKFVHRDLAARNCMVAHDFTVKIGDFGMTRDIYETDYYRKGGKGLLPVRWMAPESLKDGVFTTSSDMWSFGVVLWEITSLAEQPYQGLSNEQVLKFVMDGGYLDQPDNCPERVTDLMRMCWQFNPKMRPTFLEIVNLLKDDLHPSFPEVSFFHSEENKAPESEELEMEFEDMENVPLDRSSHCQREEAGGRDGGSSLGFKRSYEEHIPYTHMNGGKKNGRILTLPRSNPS
T1 sequence (P06213 763-1382 partner limits assumed): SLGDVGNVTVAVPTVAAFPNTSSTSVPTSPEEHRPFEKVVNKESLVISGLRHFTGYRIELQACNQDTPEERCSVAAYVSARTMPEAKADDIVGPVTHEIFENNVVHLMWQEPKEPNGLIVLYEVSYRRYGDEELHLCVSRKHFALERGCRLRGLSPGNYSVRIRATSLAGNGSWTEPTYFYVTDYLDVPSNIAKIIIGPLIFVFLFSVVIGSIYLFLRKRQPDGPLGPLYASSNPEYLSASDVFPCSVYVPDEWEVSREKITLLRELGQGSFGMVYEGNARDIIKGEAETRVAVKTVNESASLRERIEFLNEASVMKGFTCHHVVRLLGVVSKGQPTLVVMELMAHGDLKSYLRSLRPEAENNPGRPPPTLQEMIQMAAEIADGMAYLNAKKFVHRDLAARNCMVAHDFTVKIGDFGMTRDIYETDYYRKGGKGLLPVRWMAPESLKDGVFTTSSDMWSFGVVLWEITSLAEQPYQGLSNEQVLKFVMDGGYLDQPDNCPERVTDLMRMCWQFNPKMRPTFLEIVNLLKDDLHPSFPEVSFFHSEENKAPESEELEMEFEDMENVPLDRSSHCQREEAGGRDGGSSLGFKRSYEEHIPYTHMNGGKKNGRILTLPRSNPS

IR signaling = IR signaling in primary mouse hepatocytes; type: cell-based
Method: Primary hepatocytes were isolated from 2-month-old male mice with a standard two-step collagenase perfusion procedure as described earlier with some modifications. […] After 1-2 sec upon appearance of white spots in the liver, the portal vein was cut with scissors to wash out blood, and then the liver was perfused with 30 ml of Liver Digest Medium (Thermo Scientific, Cat. #17703034). Dissected liver was gently washed with low glucose DMEM and transferred to sterile culture dish containing 15 ml Liver Digest Medium. The isolated liver cells were filtered through the 70 μm cell strainer into a 50 ml tube. After centrifuge at 50 g for 5 min at 4° C., cells were washed with cold low glucose DMEM three times. […] After 2 hr., the medium was changed to serum free low-glucose DMEM.
The cells were incubated with the lysis buffer B [50 mM Hepes pH 7.4, 150 mM NaCl, 10% Glycerol, 1% Triton X-100, 1 mM EDTA, 100 mM sodium fluoride, 2 mM sodium orthovanadate, 20 mM sodium pyrophosphate, 0.5 mM dithiothreitol (DTT), 2 mM phenylmethylsulfonyl fluoride (PMSF)] supplemented with complete Protease Inhibitor Cocktail (Roche), PhosSTOP (Sigma), and 25 U/ml turbo nuclease (Accelagen) on ice for 1 hr. After centrifuge at 20,817 g at 4° C. for 10 min, the concentrations of cell lysate were measured using Micro BCA Protein Assay Kit (Thermo Scientific). About 50-60 μg total proteins were analyzed by SDS-PAGE and quantitative Western blotting. The following antibodies were purchased from commercial sources: Anti-IR-pY1150/1151 (WB, 1:1000; 19H6; labeled as pY IR, Cat. #3024), anti-AKT (WB, 1:1000; 40D4, Cat. #2920), anti-pS473 AKT (WB, 1:1000; D9E, Cat. #4060), anti-ERK1/2 (WB, 1:1000; L34F12, Cat. #4696), anti-pERK1/2 (WB, […]; 197G2, Cat. #4377), anti-IRS1-pS616 (WB, 1:1000; C15H5, Cell Signaling, Cat. #3203); anti-IRS1 (WB, 1:1000; A301-158A, Bethyl Laboratory); anti-IR (WB, 1:500, CT-3, Santa Cruz; labeled as IR for primary hepatocytes and MEFs, Cat. #sc-57342); anti-IR (WB, 1:1000; EPR23566-103; labeled as IR for FIG. 31, ab278100, Abcam); anti-Myc (WB, 1:2000; 9E10, Cat. #11667149001, Roche; labeled as IR for 293 FT cells). For quantitative western blots, anti-rabbit immunoglobulin G (IgG) (H+L) (WB, 1:5000; Dylight 800 conjugates, Cat. #5151) and anti-mouse IgG (H+L) (WB, 1:5000; Dylight 680 conjugates, Cat. #5470) (Cell Signaling) were used as secondary antibodies. The membranes were scanned with the Odyssey Infrared Imaging System (Li—COR, Lincoln, NE).

IR F96A = target: T2, IR F96A (Homo sapiens, UniProt P06213, F123A); test: IR activation assay in 293 FT cells, IR F96A mutant; type: cell-based; conditions: 10 nM for 10 min
T2 construct: expressed in transfected cells; host or cells: 293 FT cells
T2 sequence (P06213 28-1370 isoform P06213-2 F123A limits assumed): as the sequence (P06213 28-1370 isoform P06213-2 R372A limits assumed) above, with F96A, A345R counted along it
T2 sequence (P06213 763-1382 partner limits assumed): as the sequence (P06213 763-1382 partner limits assumed) above

[1] = type: in vivo, mice; conditions: 50 U/kg once daily for three days; 2 g glucose/kg after 6 hr. fast
Method: For oral glucose tolerance test, mice were fasted for 6 hr. and their blood glucose levels (T=0) were measured with tail bleeding using a glucometer (AlphaTRAK). After then, glucose (2 g/kg body weight) was administered by oral gavage. Blood glucose levels were measured at the indicated time points after glucose administration. For FIG. 31F, 2 months old male mice were fasted for 14 hr. […] One hour later livers were collected.

IR R14W = target: T3, IR R14W (Homo sapiens, UniProt P06213, R41W); test: IR activation assay in 293 FT cells, IR R14W mutant; type: cell-based; conditions: 10 min
T3 construct: expressed in transfected cells; host or cells: 293 FT cells
T3 sequence (P06213 28-1370 isoform P06213-2 R41W limits assumed): as the sequence (P06213 28-1370 isoform P06213-2 R372A limits assumed) above, with R14W, A345R counted along it
T3 sequence (P06213 763-1382 partner limits assumed): as the sequence (P06213 763-1382 partner limits assumed) above

IR = IR (Homo sapiens, UniProt P06213); conditions: cited from earlier work
IR, sequence (P06213 28-758 limits assumed): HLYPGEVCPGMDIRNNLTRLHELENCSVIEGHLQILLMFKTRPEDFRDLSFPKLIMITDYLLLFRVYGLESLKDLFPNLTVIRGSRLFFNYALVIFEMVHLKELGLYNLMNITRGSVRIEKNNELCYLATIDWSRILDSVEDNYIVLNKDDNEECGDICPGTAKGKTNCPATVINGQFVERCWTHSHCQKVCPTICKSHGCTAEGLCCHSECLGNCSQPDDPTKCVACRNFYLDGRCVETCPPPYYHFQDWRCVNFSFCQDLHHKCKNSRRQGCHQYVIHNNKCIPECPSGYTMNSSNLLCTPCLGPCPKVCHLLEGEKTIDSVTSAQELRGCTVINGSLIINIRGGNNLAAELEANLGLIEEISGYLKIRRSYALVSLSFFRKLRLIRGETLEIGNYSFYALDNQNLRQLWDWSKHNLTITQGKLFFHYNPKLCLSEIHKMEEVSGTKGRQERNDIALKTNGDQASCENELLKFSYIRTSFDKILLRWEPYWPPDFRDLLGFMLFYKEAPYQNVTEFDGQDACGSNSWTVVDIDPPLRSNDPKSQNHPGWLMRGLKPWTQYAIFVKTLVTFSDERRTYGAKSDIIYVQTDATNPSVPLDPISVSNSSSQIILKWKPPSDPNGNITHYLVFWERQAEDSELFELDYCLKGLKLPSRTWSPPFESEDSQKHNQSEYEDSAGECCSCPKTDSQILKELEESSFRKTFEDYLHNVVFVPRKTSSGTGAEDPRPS
IR, sequence (P06213 763-1382 partner limits assumed): as the sequence (P06213 763-1382 partner limits assumed) above

Insulin tolerance test = type: in vivo, mice; conditions: intraperitoneal
Method: Insulin tolerance tests were performed as described previously with some modification. Briefly, 2-3 months old male mice were fasted for 2 hr. and their blood glucose levels (T=0) were measured with tail bleeding using a glucometer (AlphaTRAK). After then, mice were injected intraperitoneally with Humulin (6 nmol/kg body weight), S597 (9 nmol/kg), S597-S20D (9 nmol/kg), S597-W6A (9 nmol/kg), S597-F27A (9 nmol/kg), or S597-N20 (27 nmol/kg), and their blood glucose levels were measured at the indicated time points after injection.

T47D = test: IR signaling in cancer cells, T47D; type: cell-based; conditions: 10, 100 or 300 nM for 10 minutes
full-length IGF1R = test: In vitro competition assay for full-length IGF1R; type: binding
MCF7 = test: IR signaling in cancer cells, MCF7; type: cell-based; conditions: 10, 100 or 300 nM for 10 minutes

Question: Which “nuclear translocation of SREBP1” value (SREBP1) does the source give for `CC[C@H](C)[C@H](NC(=O)[C@H](CCC(N)=O)NC(=O)[C@H](C)NC(=O)[C@H](Cc1c[nH]c2ccccc12)NC(=O)[C@H](CCC(=O)O)NC(=O)[C@H](CCC(=O)O)NC(=O)[C@H](CCC(=O)O)NC(=O)[C@H](CC(C)C)NC(=O)[C@H](CO)NC(C)=O)C(=O)N[C@@H](CCC(=O)O)C(=O)N[C@H]1CSSC[C@@H](C(=O)N2CCC[C@H]2C(=O)N[C@@H](CO)C(=O)N[C@@H](CCC(=O)O)C(=O)N[C@@H](CO)C(=O)N[C@@H](Cc2ccccc2)C(=O)N[C@@H](Cc2ccc(O)cc2)C(=O)N[C@@H](CC(=O)O)C(=O)N[C@@H](Cc2c[nH]c3ccccc23)C(=O)N[C@@H](Cc2ccccc2)C(=O)N[C@@H](CCC(=O)O)C(=O)N[C@@H](CCCNC(=N)N)C(=O)N[C@@H](CCC(N)=O)C(=O)N[C@@H](CC(C)C)C(N)=O)NC(=O)CNC(=O)[C@H](CCCNC(=N)N)NC(=O)CNC(=O)[C@H](Cc2ccc(O)cc2)NC(=O)[C@H](C(C)C)NC(=O)[C@H](CCC(=O)O)NC1=O` [S597] (Ac-SLEEEWAQIECEVYGRGCPSESFYDWFERQL-NH2; disulfide 11-18) here?
Answer: stimulated to the same level

Question: And the IR signaling (CAL33)?
Answer: failed to activate

Question: And the “IR activation (pY IR)” value (IR R345A)?
Answer: fully activated

Question: What about the pAKT (IR signaling) of the same compound?
Answer: increased

Question: What about the pERK (IR signaling) of the same compound?
Answer: increased

Question: What about the “pY IR” value (IR signaling) of the same compound?
Answer: increased

Question: What about the “IR activation (pY IR)” value (IR F96A) of the same compound?
Answer: great deficiency

Question: What about the “area under curve (AUC) for blood glucose during OGTT” value [1] of the same compound?
Answer: No significant

Question: What about the “IR activation (pY IR)” value (IR R14W) of the same compound?
Answer: fully activated

Question: And the “affinity for the IR” value (IR)?
Answer: sub-micromolar

Question: What about the “blood glucose levels in ITT” value (Insulin tolerance test; FIGS. 10A, 8F, 8G) of the same compound?
Answer: lowered

Question: What about the “blood glucose in insulin tolerance assays” value (Insulin tolerance test; FIGS. 12B, 12C) of the same compound?
Answer: lowered blood glucose in mice as effectively as insulin

Question: And the IR signaling (T47D)?
Answer: failed to activate

Question: And the “binding to IGF1R” value (full-length IGF1R)?
Answer: do not bind

Question: What about the IR signaling (MCF7) of the same compound?
Answer: failed to activate

— patent US20250250303A1 (THE TRUSTEES OF COLUMBIA UNIVERSITY IN THE CITY OF NEW YORK, priority 2022, published 2025)
